# Results taken from patent US4255183A, “Substituted phenyl urea and herbicides for use in paddy field” (Hokko Chemical Industry Co., Ltd., priority 1977, dated 1981).
# Where two headings read alike, the source gives them in different places.
# What was measured:
# paddy rice [1] = assay: Test Example 5: Wagner pot test, chemical injury on paddy rice; type: in vivo, paddy rice (Asahi species); further: key: 5: Completely killed; 4: Considerably injured; 3: Moderately injured; 2: A little injured; 1: Slightly injured; 0: Not injured
# Method: (§1) In a 1/7500 are Wagner pot, sieved paddy field soil (alluvial soil) was charged. Thereafter, in the center portion of the pot, 2 roots of paddy rice (Asahi species) at the 2- to 3-leaf stage were transplanted and 20 seeds of Bulrush per pot were seeded in the surface of the above soil. The pot was submerged at the depth of about 2 cm. The other Dopatrium junceum and umbrella plant were generated naturally. After seeding, when each of the weeds reached the same leaf age as defined in Table 5 given herein, a predetermined concentration of the emulsion prepared according to Example 4 was applied dropwise on the surface of the pot. The test was carried out by repeating the same test three times per area and the results were determined 20 days after the application of the chemicals with regard to the herbicidal effect and chemical injury on paddy rice on the basis of the evaluation index as shown below.
# (§2) As the comparative chemicals Molinate, Benthiocarb and DCMU, those commercially available were used.
# paddy rice [2] = assay: Test Example 1: pot test on selectivity, inhibition of paddy rice; type: in vivo; settings: for inhibition at 750 g/ha / inhibition at 1500 g/ha / inhibition at 3000 g/ha / inhibition at 6000 g/ha / inhibition at 9000 g/ha: Oryza sativa, 720 h
# Method: In a Wagner pot of 1/500 are, paddy field soil (alluvial soil) was placed and 50 seeds of Echinochloa crus-galli var. oryzicola and 30 seeds of paddy rice were seeded in the surface layer of said soil and the submerging depth was kept at about 1 cm. […] After 30 days from the treatment with the chemical, dry weights of Echinochloa crus-galli var. oryzicola and paddy rice were measured and the inhibition rate was calculated with reference to untreated area. [formula]
# (§3) The comparative chemicals used, i.e. DCMU and Linuron, were those commercially available, and the comparative chemicals A and B used were prepared according to the process for formulating the compound of this invention.
# Bulrush = assay: Test Example 5: Wagner pot test, herbicidal effect on Bulrush; type: in vivo
# Method: as §1, §2
# (§4) In the above table, the inhibition rate was calculated according to the method as described in Test Example 1.
# paddy rice [3] = settings: known upland herbicides; cited from earlier work
# Umbrella plant = assay: Test Example 5: Wagner pot test, herbicidal effect on umbrella plant; type: in vivo; settings: 20 days after application
# Method: as §1, §2, §4
# Dopatrium junceum = assay: Test Example 5: Wagner pot test, herbicidal effect on Dopatrium junceum; type: in vivo
# Method: as §1, §2, §4
# various weeds = settings: known upland herbicides; cited from earlier work
# [4] = test system: Echinochloa crus-galli var. oryzicola; assay: Test Example 1: pot test on selectivity, inhibition of Echinochloa crus-galli var. oryzicola; type: in vivo; settings: for inhibition at 750 g/ha / inhibition at 1500 g/ha / inhibition at 3000 g/ha / inhibition at 6000 g/ha / inhibition at 9000 g/ha: Echinochloa crus-galli, 720 h
# Method: (§5) In a Wagner pot of 1/500 are, paddy field soil (alluvial soil) was placed and 50 seeds of Echinochloa crus-galli var. oryzicola and 30 seeds of paddy rice were seeded in the surface layer of said soil and the submerging depth was kept at about 1 cm. When Echinochloa crus-galli var. oryzicola reached at the one leaf stage and 5-leaf stage, the emulsion of a predetermined concentration, prepared according to Example 4 was added dropwise. After 30 days from the treatment with the chemical, dry weights of Echinochloa crus-galli var. oryzicola and paddy rice were measured and the inhibition rate was calculated with reference to untreated area. [formula]
# as §3
# [5] = test system: Echinochloa crus-galli var. oryzicola; assay: Test Example 3: field test in transplanted paddy field, Echinochloa crus-galli var. oryzicola; type: in vivo; settings: farm test in transplanted paddy field
# Method: as §5
# In a 10 m^2 paddy field, young seedlings of paddy rice (Asahi species) at the 2,5-leaf stage were transplanted 30 days after the puddling the submerging at the depth of 3-5 cm. 25 Days after the transplantation, when Echinochloa crus-galli var. oryzicola reached 4-leaf stage, a predetermined dose of the granule prepared according to Example 1 was applied. Test results were examined 60 days after the transplantation of paddy rice in the similar manner as in Test Example 1.
# Comparative chemicals used were all those commercially available and in the case of the comparative chemical 2, CNP was applied 3 days after the transplantation of paddy rice and after 25 days a mixture of Benthiocarb and Simetryne was applied.
# paddy rice [6] = assay: whole plant or invertebrate; type: in vivo, paddy rice (Asahi species); settings: in vivo
# Method: as §5
# (§6) In a concrete pot of 1/400 are (50 cm×50 cm), paddy field soil (alluvial soil) was placed and 200 seeds of Echinochloa crus-galli var. oryzicola were seeded in 10 surface layer of said soil and the soil was submerged at about 3 cm depth. Before emergence of Echinochloa crus-galli var. oryzicola, paddy rice at 2.5-leaf stage (Asahi species) was transplanted at the rate of 8 stubs per pot, planting 3 seedlings per stub. At the one-leaf stage (3.5 leaves stage of paddy rice) and 5 leaves stage (7 leaves stage of paddy rice) of Echinochloa crus-galli var. oryzicola, the granule prepared according to Example 1 was applied. […] 30 Days after the treatment with the chemical, examination was made in the similar manner as Test Example 1 to obtain results as shown in Table 2.
# (§7) In the table, as the comparative chemicals CPN, Benthiocarb, Molinate and Simetryne, those commercially available were used and the comparative chemicals A and B (as mentioned before) used were prepared according to the process for preparing the compound of this invention.
# [7] = test system: Echinochloa crus-galli var. oryzicola; assay: Test Example 2: concrete pot test on killing effect, Echinochloa crus-galli var. oryzicola; type: in vivo
# Method: as §5, §6, §7
# [8] = test system: Echinochloa crus-galli var. oryzicola; assay: Test Example 4: field test in submerged directly seeded paddy field, Echinochloa crus-galli var. oryzicola; type: in vivo; settings: submerged direct seeding
# Method: as §5
# In a 10 m^2 paddy field, 30 g of Echinochloa crus-galli var. oryzicola seeds were seeded at the time of puddling and the depth of submerging was kept at 3-5 cm. 3 Days after the puddling, 50 g of paddy rice at the emergence stage (Asahi species) were seeded. When Echinochloa crus-galli var. oryzicola and paddy rice reached a 2- to 3-leaf stage, a predetermined dose of the emulsion prepared according to Example 4 was applied uniformly by means of a manual spraying machine. Test results were examined 21 days after the application of the chemicals in the similar manner as in Test Example 1.
# The comparative chemical 1 used was that commercially available and the comparative chemical 2 used was prepared according to Example 4.
# [9] = 300 g/10a, leaf age 3, 20 days after application
# [10] = 600 g/10a, leaf age 3, 20 days after application
# [11] = read-out: Inhibition (%) by treatment at 1-leaf stage, paddy rice
# [12] = read-out: Inhibition (%) by treatment at 5-leaf stage, paddy rice
# [13] = read-out: Inhibition (%) by treatment at 1-leaf stage, E. crus-galli var. oryzicola
# [14] = read-out: Inhibition (%) by treatment at 5-leaf stage, E. crus-galli var. oryzicola
# [15] = versus 3-(4-(3-chloro-2-butenyloxy)phenyl)-1,1-dimethyl urea
smiles,measurement,setting,value
"CN(C)C(=O)Nc1ccc(Cl)c(Cl)c1 [DCMU, 3-(3,4-dichlorophenyl)-1,1-dimethyl urea]",Chemical injury on paddy rice,"paddy rice [1]; 300 g/10a, 3 tillers, 20 days after application",4
same,Chemical injury on paddy rice,paddy rice [1]; [9],5
same,Chemical injury on paddy rice,"paddy rice [1]; 600 g/10a, 3 tillers, 20 days after application",5
same,Chemical injury on paddy rice,paddy rice [1]; [10],5
same,inhibition at 750 g/ha,paddy rice [2]; [11],92%
same,inhibition at 1500 g/ha,paddy rice [2]; [11],100%
same,inhibition at 3000 g/ha,paddy rice [2]; [11],100%
same,inhibition at 6000 g/ha,paddy rice [2]; [11],100%
same,inhibition at 9000 g/ha,paddy rice [2]; [11],100%
same,inhibition at 750 g/ha,paddy rice [2]; [12],61%
same,inhibition at 1500 g/ha,paddy rice [2]; [12],100%
same,inhibition at 3000 g/ha,paddy rice [2]; [12],100%
same,inhibition at 6000 g/ha,paddy rice [2]; [12],100%
same,inhibition at 9000 g/ha,paddy rice [2]; [12],100%
same,selectivity between Echinochloa crus-galli var. oryzicola and paddy rice,paddy rice [2]; in vivo,kill not only Echinochloa crus-galli var. oryzicola but also paddy rice
same,"Weed kill degree, Bulrush",Bulrush; [9],5 (100)
same,"Weed kill degree, Bulrush","Bulrush; 300 g/10a, leaf age 3-5, 20 days after application",5 (100)
same,"Weed kill degree, Bulrush",Bulrush; [10],5 (100)
same,"Weed kill degree, Bulrush","Bulrush; 600 g/10a, leaf age 3-5, 20 days after application",5 (100)
same,chemical injury to paddy rice,paddy rice [3],strong chemical injury to paddy rice
same,"Weed kill degree, Umbrella plant","Umbrella plant; 300 g/10a, leaf age 2 (first group of columns)",5 (100)
same,"Weed kill degree, Umbrella plant","Umbrella plant; 300 g/10a, leaf age 2 (second group of columns)",4-5
same,"Weed kill degree, Umbrella plant","Umbrella plant; 600 g/10a, leaf age 2 (first group of columns)",5 (100)
same,"Weed kill degree, Umbrella plant","Umbrella plant; 600 g/10a, leaf age 2 (second group of columns)",5 (100)
same,"Weed kill degree, Dopatrium junceum","Dopatrium junceum; 300 g/10a, leaf age 2, 20 days after application",5 (100)
same,"Weed kill degree, Dopatrium junceum",Dopatrium junceum; [9],5 (100)
same,"Weed kill degree, Dopatrium junceum","Dopatrium junceum; 600 g/10a, leaf age 2, 20 days after application",5 (100)
same,"Weed kill degree, Dopatrium junceum",Dopatrium junceum; [10],5 (100)
same,herbicidal activity against various weeds,various weeds,strong herbicidal activity
same,inhibition at 750 g/ha,[4]; [13],91%
same,inhibition at 1500 g/ha,[4]; [13],100%
same,inhibition at 3000 g/ha,[4]; [13],100%
same,inhibition at 6000 g/ha,[4]; [13],100%
same,inhibition at 9000 g/ha,[4]; [13],100%
same,inhibition at 750 g/ha,[4]; [14],76%
same,inhibition at 1500 g/ha,[4]; [14],100%
same,inhibition at 3000 g/ha,[4]; [14],100%
same,inhibition at 6000 g/ha,[4]; [14],100%
same,inhibition at 9000 g/ha,[4]; [14],100%
"CC=CCOc1ccc(NC(=O)N(C)C)cc1 [the compound of the invention, 3-(4-crotyloxyphenyl)-1,1-dimethyl urea]",killing of Echinochloa crus-galli var. oryzicola not killed by conventional systematic treatment,[5],completely killed
same,Chemical injury on paddy rice,paddy rice [2]; as compared with CBPDU,more decreased
same,chemical injury,paddy rice [2]; [15],superior
same,selectivity,paddy rice [2]; [15],selectivity over a wide range
same,Chemical injury on paddy rice,paddy rice [6],no chemical injury on paddy rice
same,killing of Echinochloa crus-galli var. oryzicola at 5-leaf stage,[7]; 5-leaf stage,completely kill
same,herbicidal activity against Echinochloa crus-galli var. oryzicola at 1-leaf stage,[7]; compared with the known herbicides,similarly high herbicidal activity
same,killing of Echinochloa crus-galli var. oryzicola in submerged direct seeding cultivation,[8],selectively kill
same,power for killing Echinochloa crus-galli var. oryzicola at the 5-leaf stage,[4]; as compared with CBPDU,more increased
same,herbicidal activity against Echinochloa crus-galli var. oryzicola at 5-leaf stage,[4]; [15],superior
same,herbicidal activity against Echinochloa crus-galli var. oryzicola,[4]; versus a compound disclosed in Japanese Pat. No. 2329/1973,superior herbicidal activity
